Measurements reported in patent US20240408082A1, “METHODS FOR TREATING CANCERS AND TUMORS” (BEYONDSPRING PHARMACEUTICALS, INC., priority 2021, published 2024).
“And” between values parts separate entries of the source, which are not always exact repeats. Identical values can stand only once.

Key:
Assay type in all cases: cell-based
[1] = system: 87 PDX models of various histotypes; assay: 3D clonogenic assay, Example 1, all PDX models
Experimental: (§1) In the present study, plinabulin was characterized for its ability to inhibit anchorage independent growth and ex vivo colony formation of tumor cells in semi-solid medium. The compound was investigated in 87 out of 93 originally planned tumor xenografts representing all major cancer types using a 3D clonogenic assay in a 96-well format with colony count based on image analysis as read-out. By using this assay, the investigational compound was assessed for the ability to inhibit anchorage independent growth and ex vivo colony formation of tumor cells in semi-solid medium.
(§2) A master stock solution of plinabulin was prepared by dissolving the compound in DMSO at a concentration of 9.9 mM. Working stock solutions were prepared by diluting the master stock solution with DMSO to a concentration of 0.99 mM (330-fold the highest test concentration). Small aliquots of the master and working stock were stored at −20° C. On each day of an experiment, an aliquot of the working stock was used and stored at room temperature prior to and during treatment. All liquid handling steps were performed using a Tecan Freedom EVO 200 robotic platform. First, serial dilutions of the working stock solution were done in DMSO. The DMSO dilutions were then diluted 1:22 into cell culture medium (IMDM, supplemented with 20% (v/v) fetal calf serum, and 50 μg/ml gentamicin) in an intermediate dilution plate. Finally, 10 μl taken from the intermediate dilution plate were transferred to 140 μl/well of the final assay plate. Thus, the DMSO working stock was diluted 1:330, and the DMSO concentration in the assay was 0.3% v/v in all wells.
(§3) Plinabulin was investigated in 87 PDX models representing a number of cancer types. Tumors were passaged as subcutaneous xenografts in NMRI nu/nu mice. At a tumor volume of 400-1000 mm^3 tumor-bearing mice were euthanized and tumors were collected under sterile conditions without delay according to relevant SOPs and the relevant animal welfare guidelines published by the FELASA and the GV-SOLAS. Tumors were mechanically disaggregated and subsequently incubated with an enzyme cocktail consisting of collagenase type IV (41 U/ml), DNase I (125 U/ml), hyaluronidase type III (100 U/ml), and dispase II (1 U/ml) in RPMI 1640 medium (Life Technologies) at 37° C. for 60-120 minutes. Cells were passed through sieves of 100 μm and 40 μm mesh size (Cell Strainer, BD Falcon™), and washed with RPMI 1640 medium (Biochrom). The percentage of viable cells was determined in a Neubauer-hemocytometer using trypan blue exclusion. Aliquots of the cells were frozen down and stored in a liquid nitrogen vapor phase. On each day of an experiment, a frozen aliquot of tumor cells was thawed and used for the preparation of assay plates.
(§4) The clonogenic assay was carried out in a 96 well plate format using ultra low attachment plates. For each test, cells were prepared as described above and assay plates were prepared as follows: each test well contained a layer of semi-solid medium with tumor cells (50 μl), and a second layer of medium supernatant with or without test compound (100 μl). The cell layer consisted of 2.5-12.5×10^3 tumor cells per well, which were seeded on day 0 (d0) in 50 μl/well cell culture medium (IMDM, supplemented with 20% (v/v) fetal calf serum, 50 μg/ml gentamicin, and 0.4% (w/v) agar). After 24 h, the soft-agar layer was covered with 90 μl of the same culture medium without agar. Seven days after seeding 10 μl of test compound or control medium was added, and left on the cells for 24 h. Every 96 well plate included six DMSO-treated control wells and drug-treated wells in duplicate at 9 concentrations. After the incubation time of 24 h the supernatant (90 μl medium without agar +10 μl compound/control) was changed against drug free medium and incubated until the end of the study. Cultures were incubated at 37° C. and 7.5% CO2 in a humidified atmosphere 13 days in total and monitored closely for colony growth using an inverted microscope. […]

small cell lung cancer [2] = assay: 3D clonogenic assay, Example 1, small cell lung cancer; settings: n=7 models
Experimental: as §1
(§5) A master stock solution of plinabulin was prepared by dissolving the compound in DMSO at a concentration of 9.9 mM. Working stock solutions were prepared by diluting the master stock solution with DMSO to a concentration of 0.99 mM (330-fold the highest test concentration). Small aliquots of the master and working stock were stored at −20° C. […]
(§6) Plinabulin was investigated in 87 PDX models representing a number of cancer types. […] The percentage of viable cells was determined in a Neubauer-hemocytometer using trypan blue exclusion. […]
(§7) The clonogenic assay was carried out in a 96 well plate format using ultra low attachment plates. […] Cultures were incubated at 37° C. and 7.5% CO2 in a humidified atmosphere 13 days in total and monitored closely for colony growth using an inverted microscope. […]

bladder cancer = assay: 3D clonogenic assay, Example 1, bladder cancer; settings: n=9 models
Experimental: as §1, §5, §6, §7

soft tissue sarcoma = assay: 3D clonogenic assay, Example 1, soft tissue sarcoma; settings: n=10 models
Experimental: as §1, §5, §6, §7

BXF 1258 = assay: 3D clonogenic assay, Example 1, BXF 1258; settings: model BXF 1258
Experimental: as §1, §5, §6, §7

BXF 2211 = assay: 3D clonogenic assay, Example 1, BXF 2211; settings: model BXF 2211
Experimental: as §1, §5, §6, §7

BXF 2775 = assay: 3D clonogenic assay, Example 1, BXF 2775; settings: model BXF 2775
Experimental: as §1, §5, §6, §7

SXFS 627 = assay: 3D clonogenic assay, Example 1, SXFS 627; settings: model SXFS 627
Experimental: as §1, §5, §6, §7

melanoma models [3] = assay: 3D clonogenic assay, Example 1, melanoma models; settings: n=19 models
Experimental: as §1, §5, §6, §7

[4] = system: 68 PDX models of various histotypes; assay: 3D clonogenic assay, Example 2, all PDX models
Experimental: (§8) The present study investigated plinabulin for anticancer activity ex vivo in 68 out of 71 originally planned patient-derived xenograft (PDX) models representing major cancer types. Experiments were performed using a 3D clonogenic assay in a 96-well format with colony count based on image analysis as a read-out. By using this assay, the investigational compound was assessed for the ability to inhibit anchorage independent growth and ex vivo colony formation of tumor cells in semi-solid medium.
as §2, with “1:22 into the cell culture” for “1:22 into cell culture”, “was diluted at 1:330, and” for “was diluted 1:330, and”
as §3, with “68” for “87”
as §4, with “above (Section 6.6)” for “above”, “2.5-12.5·10^3” for “2.5-12.5×10^3”

small cell lung cancer [5] = assay: 3D clonogenic assay, Example 2, small cell lung cancer; settings: n=7 models
Experimental: as §8, §5
(§9) Plinabulin was investigated in 68 PDX models representing a number of cancer types. […] The percentage of viable cells was determined in a Neubauer-hemocytometer using trypan blue exclusion. […]
as §7

osteosarcoma = assay: 3D clonogenic assay, Example 2, osteosarcoma; settings: n=3 models
Experimental: as §8, §5, §9, §7

gastric cancer (Asian) = assay: 3D clonogenic assay, Example 2, gastric cancer (Asian); settings: n=3 models
Experimental: as §8, §5, §9, §7

[6] = system: central nervous system cancer; assay: 3D clonogenic assay, Example 2, central nervous system cancer; settings: n=6 models
Experimental: as §8, §5, §9, §7

[7] = system: small cell lung cancer model LXFS 2156; assay: 3D clonogenic assay, Example 2, LXFS 2156
Experimental: as §8, §5, §9, §7

[8] = system: small cell lung cancer model LXFS 650; assay: 3D clonogenic assay, Example 2, LXFS 650
Experimental: as §8, §5, §9, §7

[9] = system: osteosarcoma model SXFO 1186; assay: 3D clonogenic assay, Example 2, SXFO 1186
Experimental: as §8, §5, §9, §7

[10] = system: (Asian) gastric cancer model GXA 3067; assay: 3D clonogenic assay, Example 2, GXA 3067; settings: read-out: abs. IC50
Experimental: as §8, §5, §9, §7

melanoma models [11] = assay: 3D clonogenic assay, Example 2, melanoma models; settings: n=9 models
Experimental: as §8, §5, §9, §7

[12] = system: Her2-enriched breast cancer models; assay: 3D clonogenic assay, Example 2, Her2-enriched breast cancer models; settings: n=6 models
Experimental: as §8, §5, §9, §7

[13] = system: soft tissue sarcoma models; assay: 3D clonogenic assay, Example 2, soft tissue sarcoma models; settings: n=8 models
Experimental: as §8, §5, §9, §7

[14] = system: small cell lung cancer model LXFS 1129; assay: 3D clonogenic assay, Example 2, LXFS 1129
Experimental: as §8, §5, §9, §7

[15] = system: Triple negative breast cancer (MAXFTN); assay: 3D clonogenic assay, Example 2, triple negative breast cancer; settings: based on IC70, FIG. 7
Experimental: as §8, §5, §9, §7

bladder cancer models = assay: 3D clonogenic assay, Example 2, bladder cancer models; settings: n=6 models
Experimental: as §8, §5, §9, §7

[16] = system: gastric cancer models (Caucasian); assay: 3D clonogenic assay, Example 2, gastric cancer models (Caucasian); settings: n=3 models
Experimental: as §8, §5, §9, §7

[17] = sigmoidal concentration-effect curves

## CC(C)(C)c1[nH]cnc1/C=c1\[nH]c(=O)/c(=C/c2ccccc2)[nH]c1=O [plinabulin, (3Z,6Z)-3-Benzylidene-6-{[5-(2-methyl-2-propanyl)-1H-imidazol-4-yl]methylene}-2,5-piperazinedione]
[1]; 87 PDX models
  Sensitive Tumors, Number, Based on Abs. IC70: 40 out of 87 and 40/87
  Sensitive Tumors, Number, Based on Rel. IC70: 23/87
  Sensitive Tumors, Percentage, Based on Abs. IC70: 46%
  Sensitive Tumors, Percentage, Based on Rel. IC70: 26%
[1]; all 87 PDX models, 24 h treatment, 13 days culture
  geometric mean absolute IC70, tumor colony formation: 166 nM
[1]; geometric means
  Fold difference of IC70 of sensitive tumors vs. all tumors, Based on Abs. IC70: 6.8 fold
  Fold difference of IC70 of sensitive tumors vs. all tumors, Based on Rel. IC70: 4.6 fold
[1]; [17]
  inhibition of tumor colony formation (in words): inhibited tumor colony formation in a concentration-dependent manner in almost all cell lines
Small cell lung cancer [2]
  geom. mean absolute IC70: 35 nM
Bladder cancer
  geom. mean absolute IC70: 38 nM
Soft tissue sarcoma
  geom. mean absolute IC70: 57 nM
BXF 1258
  absolute IC70: 3 nM
BXF 2211
  absolute IC70: 3 nM
BXF 2775
  absolute IC70: 3 nM
SXFS 627
  absolute IC70: 3 nM
Melanoma models [3]
  geometric mean absolute IC70: 1105 nM
[4]; 68 PDX models
  Sensitive Tumors, Number, Based on Abs. IC70: 9 out of 68 and 9/68
  Sensitive Tumors, Number, Based on Rel. IC70: 27/68
  Sensitive Tumors, Percentage, Based on Abs. IC50: 35%
  Sensitive Tumors, Percentage, Based on Abs. IC70: 13%
  Sensitive Tumors, Percentage, Based on Rel. IC50: 50%
  Sensitive Tumors, Percentage, Based on Rel. IC70: 40%
[4]; all 68 PDX models, treatment from day 7 to day 8
  geometric mean absolute IC70, tumor colony formation: 1780 nM
[4]; all 68 PDX models, treatment from day 7 to day 8, read-out: geometric mean absolute IC50, tumor colony formation
  IC50: 600 nM
[4]; geometric means
  Fold difference of IC50 of sensitive tumors vs. all tumors, Based on Abs. IC50: 10.7 fold
  Fold difference of IC50 of sensitive tumors vs. all tumors, Based on Rel. IC50: 3.4 fold
  Fold difference of IC70 of sensitive tumors vs. all tumors, Based on Abs. IC70: 27.1 fold
  Fold difference of IC70 of sensitive tumors vs. all tumors, Based on Rel. IC70: 4.6 fold
[4]; [17]
  inhibition of tumor colony formation (in words): inhibited tumor colony formation in a concentration-dependent manner in almost all cell lines
Small cell lung cancer [5]
  geom. mean abs. IC70: 385 nM
Small cell lung cancer [5]; read-out: geom. mean abs. IC50
  IC50: 74 nM
osteosarcoma
  geom. mean abs. IC70: 624 nM
osteosarcoma; read-out: geom. mean abs. IC50
  IC50: 117 nM
Gastric cancer (Asian)
  geom. mean abs. IC70: 319 nM
Gastric cancer (Asian); read-out: geom. mean abs. IC50
  IC50: 166 nM
[6]
  geom. mean abs. IC70: 1521 nM
[6]; read-out: geom. mean abs. IC50
  IC50: 426 nM
[7]
  abs. IC70: 15 nM
[7]; read-out: abs. IC50
  IC50: 7 nM
[8]
  abs. IC70: 32 nM
[8]; read-out: abs. IC50
  IC50: 22 nM
[9]
  abs. IC70: 27 nM
[9]; read-out: abs. IC50
  IC50: 19 nM
[10]
  IC50: 26 nM
Melanoma models [11]
  geometric mean absolute IC70: > 3000 nM
Melanoma models [11]; read-out: geom. mean abs. IC50
  IC50: 1370 nM
[12]
  geometric mean absolute IC70: > 3000 nM
[12]; read-out: geom. mean abs. IC50
  IC50: 2250 nM
[13]
  geometric mean absolute IC70: > 3000 nM
[13]; read-out: geom. mean abs. IC50
  IC50: 2580 nM
[14]
  abs. IC70: 32 nM
[15]
  sensitivity to plinabulin (in words): sensitive
Bladder cancer models
  geometric mean absolute IC70: > 3000 nM
[16]
  geometric mean absolute IC70: > 3000 nM
